{"source": "patent US20250367132A1", "about": "“SOLID LIPID NANOPARTICLES FOR ENCAPSULATION AND DELIVERY OF BIOACTIVE COMPOUNDS AND METHODS OF MAKING THE SAME” (Yubeck, Inc., priority 2024, published 2025)", "key": {"[1]": {"experiment": "Dynamic light scattering (DLS): mean particle size and polydispersity index", "format": "physicochemical", "description": "SLNs are characterized by particle size distribution, polydispersity index (PDI), surface charge (zeta potential), encapsulation efficiency (EE %), and loading capacity (LC %), all of which influence their stability, bioavailability, and controlled release properties. Particle size distribution is measured using dynamic light scattering (DLS), nanoparticle tracking analysis (NTA), or any equivalent method, ensuring SLN sizes range from 10 nm approximately 1000 nm. PDI, measured by DLS or NTA indicates uniformity of particle size distribution. Zeta potential, measured using […], electrophoretic light scattering (ELS), or an equivalent method, must have an absolute value of ≥25 mV, ensuring sufficient electrostatic repulsion to maintain colloidal stability. Encapsulation efficiency (EE %) and loading capacity (LC %) are measured using UV-Vis Spectroscopy, high performance liquid chromatography, or liquid chromatography mass spectrometry (LC-MS), amino acid analysis (AAA), or any equivalent method, with target values defined for each bioactive compound.\nAn example of the manufacturing process of whole Spirulina SLNs is disclosed below. In accordance with an aspect of the present invention, palmitic acid is dissolved in 100% ethanol (1.5 mg/mL) and heated to 70° C. Natural and sustainable ingredients that can be used as alternatives to palmitic acid, include stearic acid, behenic acid, lauric acid, cetyl alcohol, cocoa butter, shea butter, carnauba wax, candelilla wax, beeswax, and glycerol monostearate (GMS). Other natural lipids, such as oleic acid, linoleic acid, alpha-linolenic acid, gamma-linolenic acid, triglycerides such as medium-chain triglycerides (MCTs) or long-chain triglycerides (LCTs), and natural oils such as coconut oil, olive oil, and sunflower oil. Additional naturally derived lipid components such as 1-monolaurin, phosphatidylcholine, and phosphatidylethanolamine may also be used. […] The Spirulina SLNs are quantified using […] to measure the mean particle, PDI, and zeta potential. […]"}, "[2]": {"details": "cited from earlier work"}}, "data": [{"molecule": "C=C1CC[C@H](O)C/C1=C/C=C1\\CCC[C@]2(C)[C@@H]([C@H](C)CCCC(C)C)CC[C@@H]12", "note": "[vitamin D3, cholecalciferol]", "values": [{"measurement": "PDI", "setting": "[1]; non-encapsulated, in solution", "result": "0.10±0.01", "unit": "%"}, {"measurement": "PDI", "setting": "[1]; unencapsulated, before SLN fabrication", "result": "10.17±2.26"}, {"measurement": "mean particle size (initial diameter)", "setting": "[1]; unencapsulated, in ethanol, before SLN fabrication", "result": "124.6±0.1", "unit": "nm"}]}, {"molecule": "phycocyanin", "values": [{"measurement": "Acceptable Daily Intake (ADI)", "setting": "[2]; FDA, color additive petitions", "result": "1.0-1.8 g/p/d"}, {"measurement": "No Observed Effect Level (NOEL)", "setting": "[2]; GRAS submission", "result": "108-184.5 g/p/d"}]}]}
